Results published in PubChem BioAssay (NCI).
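Protocol summary: plate cells (96-well), add compound at 5 concentrations, incubate 48 h, interpolate endpoints linearly. GI50 marks 50% less growth. TGI: total growth inhibition.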 Where a SMILES comes first, the peptide text is derived from it.

Tests used:
Assay in all cases: inhibition of tumour cell growth, NCI panel, 48 h
RPMI-8226 leukemia = system: RPMI-8226 leukemia
MDA-MB-231 breast = system: MDA-MB-231 breast
T-47D breast = system: T-47D breast
NCI/ADR-RES ovarian = system: NCI/ADR-RES ovarian
DU-145 prostate = system: DU-145 prostate
SN12C renal = system: SN12C renal
BT-549 breast = system: BT-549 breast
MCF7 breast = system: MCF7 breast
SF-268 CNS = system: SF-268 CNS
HCT-116 colon = system: HCT-116 colon

Row | Structure (SMILES) | GI50 (RPMI-8226 leukemia) | TGI (RPMI-8226 leukemia) | GI50 (MDA-MB-231 breast) | TGI (MDA-MB-231 breast) | GI50 (T-47D breast) | TGI (T-47D breast) | GI50 (NCI/ADR-RES ovarian) | TGI (NCI/ADR-RES ovarian) | GI50 (DU-145 prostate) | TGI (DU-145 prostate) | GI50 (SN12C renal) | TGI (SN12C renal) | GI50 (BT-549 breast) | TGI (BT-549 breast) | GI50 (MCF7 breast) | TGI (MCF7 breast) | GI50 (SF-268 CNS) | TGI (SF-268 CNS) | GI50 (HCT-116 colon) | TGI (HCT-116 colon)
1 | O=C(N/N=C\c1ccc(N(CCCl)CCCl)cc1)c1cccnc1 | 44.8 µM | > 100 µM | 24.8 µM | > 100 µM | 26.5 µM | > 100 µM | 28.3 µM | > 100 µM | 11.4 µM | > 100 µM | 20.6 µM | > 100 µM | 19.7 µM | > 100 µM | 20.9 µM | > 100 µM | 27 µM | > 100 µM | 51 µM | > 100 µM
2 | C/C=C(\C)C(=O)OC1C2C(C)=CC(=O)C(O)C2(C)C2C3(O)OCC24C1OC(=O)C(OC(C)=O)C4C(C)C3O (configuration not stated) | – | 0.0377 µM | – | – | – | – | – | 31.2 µM | – | – | – | 0.468 µM | – | – | – | – | – | 0.0887 µM | – | 0.875 µM
3 | CCOC(=O)c1ccc(Nc2nc3ccccc3n3cccc23)cc1 | – | > 100 µM | – | > 100 µM | – | 47.7 µM | – | > 100 µM | – | > 100 µM | – | 39.4 µM | – | > 100 µM | – | > 100 µM | – | > 100 µM | – | > 100 µM
4 | CC(C)(C)c1ccc(NS(=O)(=O)c2ccc(N)cc2)cc1 | – | 30.6 µM | – | 68.1 µM | – | > 100 µM | – | 75.9 µM | – | 89.5 µM | – | 48.6 µM | – | 54.8 µM | – | 39 µM | – | 78.2 µM | – | 34.7 µM
5 | COc1cc2c(c(OC)c1OC)-c1ccc(OC)c(=O)cc1C(NC(=O)CCCCCNc1ccc(N=[N+]=[N-])cc1[N+](=O)[O-])CC2 (configuration not stated) | – | < 0.01 µM | – | < 0.01 µM | – | > 31.6 µM | – | 5.62 µM | – | 0.354 µM | – | 11.5 µM | – | – | – | > 21.6 µM | – | 10.3 µM | – | < 0.0105 µM
6 | CC(C)(C)OC(=O)NCC(c1c[nH]c2cc(Br)ccc12)c1c[nH]c2cc(Br)ccc12 | – | > 100 µM | – | 32.4 µM | – | 35.2 µM | – | 35.9 µM | – | 31.7 µM | – | 33.6 µM | – | 30.3 µM | – | 34.7 µM | – | 31.7 µM | – | 31.4 µM
7 | N#C[S-].[Ce+3].c1ccc(-c2ccccn2)nc1.c1ccc(-c2ccccn2)nc1.c1ccc(-c2ccccn2)nc1 | – | – | – | – | – | – | – | – | – | – | 12.8 µM | > 100 µM | – | – | – | – | – | – | 30.5 µM | > 100 µM
8 | COC(Cc1cc(C(O)(c2ccc(C(C)(C)C)cc2)c2cc(CC(OC)(c3cc(C(OC)(c4ccc(C(C)(C)C)cc4)c4ccc(C(C)(C)C)cc4)c(C)cc3C)c3cc(C(OC)(c4ccc(C(C)(C)C)cc4)c4ccc(C(C)(C)C)cc4)c(C)cc3C)c(C)cc2C)c(C)cc1C)(c1cc(C(OC)(c2ccc(C(C)(C)C)cc2)c2ccc(C(C)(C)C)cc2)c(C)cc1C)c1cc(C(OC)(c2ccc(C(C)(C)C)cc2)c2ccc(C(C)(C)C)cc2)c(C)cc1C | – | – | – | > 75 µM | – | > 75 µM | – | > 75 µM | – | > 75 µM | – | > 75 µM | – | > 75 µM | – | > 75 µM | – | > 75 µM | – | > 75 µM
9 | O=C1NCN(c2ccccc2)C12CCN(CCCN1CCN(CCOC(c3ccccc3)c3ccccc3)CC1)CC2 | – | 5.23 µM | – | 7.25 µM | – | 7.18 µM | – | 8.91 µM | – | 7 µM | – | 7.14 µM | – | 7.37 µM | – | 6.23 µM | – | 5.77 µM | – | 5.67 µM
10 | CC(=O)NC(CS)C(=O)NC(CO)C(=O)NC(CO)C(=O)NC(Cc1c[nH]c2ccccc12)C(=O)N1CCCC1C(=O)NC(CO)C(=O)NC(Cc1c[nH]c2ccccc12)C(=O)NC(Cc1c[nH]cn1)C(=O)NC(CO)C(=O)NC(Cc1c[nH]c2ccccc12)C(=O)NCC(=O)NCC(=O)NC(C)C(=O)NC(CCC(N)=O)C(=O)NC(CCCCN)C(=O)NC(C)C(=O)NC(CCCNC(=N)N)C(=O)NC(CCCCN)C(N)=O (configuration not stated) (Ac-CSSWPSWHSWGGAQKARK-NH2; configuration not given here) | – | > 50 µM | – | 19.7 µM | – | 28.5 µM | – | > 50 µM | – | > 50 µM | – | > 50 µM | – | 41 µM | – | > 50 µM | – | 49.6 µM | – | > 50 µM
11 | COc1nc2ccc(Cl)c(C(O)c3ccccc3)c2nc1OC (configuration not stated) | – | 34.1 µM | – | 39.9 µM | – | 99.4 µM | – | 63.4 µM | – | > 100 µM | – | 40.3 µM | – | 80.7 µM | – | 87.6 µM | – | 84.5 µM | – | 32.7 µM
